# Measured values reported in patent publication US7947697B1, “8-(3-pentylamino)-2-methyl-3-(2-chloro-4-methoxyphenyl)-6,7-dihydro-5H-cyclopenta[d] pyrazolo[1,5-a]pyrimidine methanesulfonate as a CRF antagonist” (Ono Pharmaceutical Co., Ltd., priority 2003, dated 2011).
# Entries after “also recorded” stand apart in the source; their conditions may differ.
# Experiments:
# [1] = Thermal stability by differential scanning calorimetry (DSC); type: physicochemical; settings: for thermal stability: DSC chart / heat
# Text: On the other hand, DSC chart of 8-(3-pentylamino)-2-methyl-3-(2-chloro-4-methoxyphenyl)-6,7-dihydro-5H-cyclopenta[d]pyrazolo[1,5-a]pyrimidine hydrochloride described in WO 02/053565 is shown in FIG. 2.
# It was very surprising that the difference of the salt influenced heat stability like this greatly, and it was not easily expected.
# (3) Differential Scanning Calorimeter (DSC)
# [2] = biological target: T1, human CRF1 receptor (Homo sapiens, UniProt P34998); assay: Binding assay ([125I] h/r CRF, cell membrane fraction); settings: membrane fraction of CHO-K1 cells expressing human CRF1 receptor; [125I] h/r CRF 0.25 nM; 2 hours, room temperature; read-out: affinity on CRF1 receptor (IC50)
# T1 construct: expressed in transfected cells; F-12 medium fits
# T1 sequence (P34998 24-415): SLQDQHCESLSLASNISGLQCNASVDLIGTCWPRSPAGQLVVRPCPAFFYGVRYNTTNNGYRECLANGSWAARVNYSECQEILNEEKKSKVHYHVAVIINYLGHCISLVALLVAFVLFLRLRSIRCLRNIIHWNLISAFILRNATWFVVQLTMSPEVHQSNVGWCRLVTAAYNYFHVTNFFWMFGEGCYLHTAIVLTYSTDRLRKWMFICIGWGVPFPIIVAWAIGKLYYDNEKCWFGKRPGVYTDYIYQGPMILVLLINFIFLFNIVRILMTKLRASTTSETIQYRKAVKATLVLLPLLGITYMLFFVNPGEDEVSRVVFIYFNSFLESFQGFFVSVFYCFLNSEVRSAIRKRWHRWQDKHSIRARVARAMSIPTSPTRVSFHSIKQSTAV
# Method: Cell Membrane Preparation
# After a cell line expressing a human CRF1 receptor (expressed cell line: CHO-K1 cells) was cultured to reach confluence, the cells were harvested with a scraper. Harvested cells were washed twice with PBS before being suspended in a binding assay buffer (Tris-HCl (50 mM, pH 7.0), EDTA (2 mM, pH 8.0), and MgCl2 (10 mM)) cooled by ice. Suspended cells were homogenized with a Downs-type homogenizer and subjected to centrifugation at 10,000 g to collect the membrane fraction. The harvested cell membrane fraction was re-suspended with a small quantity of the binding assay buffer, and further diluted with said buffer to 1 mg/mL. The membrane fraction thus obtained was used for binding assay.
# Fifty μL of [^125I] h/r CRF prepared to 0.5 nM with binding assay buffer was added to siliconized 1.5 mL tubes. Each of 1 μL of compounds diluted in appropriate multiples, DMSO (for total binding use) and h/r CRF solution (100 μM, for the non-specific binding use) was added to the tubes. Samples of 50 μL each of the membrane fraction preparation were added to the tubes to initiate the reaction (final concentration of [^125I] h/r CRF: 0.25 nM), then the mixtures were incubated for 2 hours at room temperature. […] Radioactivity values of the respective tubes were measured with a γ-counter. […]
# [3] = biological target: T1, human CRF1 receptor; assay: Receptor antagonistic activity (cyclic AMP assay); type: cell-based; settings: cells expressing human CRF1 receptor; human/rat CRF-stimulated intracellular cyclic AMP; read-out: antagonist activity on CRF receptor (IC50)
# Method: Receptor Antagonistic Activity (Cyclic AMP Assay):
# A cell line expressing a human CRF1 receptor was cultured using 10% bovine embryo serum and 1% F-12 nutrient mixture containing antibiotics and antifungal under 37° C., 5% carbonic anhydride, 95% air. On the day before a measurement of cyclic AMP, the cell seed to 96-well plate to be 1×10^4 cell/well. On the measurement day, the cell was washed twice with F-12 nutrient mixture, and F-12 nutrient mixture/1 mM 3-isobutyl-1-methylxanthin (assay medium) (178 μL) was added to each well. After they were incubated for 10 minutes at 37° C., each of various concentrated solutions of the test compound (2 μL) was added, or DMSO (2 μL) was added to CRF group and blank group. After they were incubated for 15 minutes at 37° C., 10 nM assay medium containing human/rat CRF (20 μL) was added to the test compound group and CRF group. To the blank group, an assay medium containing 0.00001% acetic acid (20 μL) was added. Furthermore, they were incubated for 15 minutes at 37° C. […] The cumulative dosage of intracellular cyclic AMP was measured by Biotrak enzyme immunoassay system (Amersham Biosciences). […] The IC50 values calculated by nonlinear regression analysis with logarithm concentrate of the compound as the autonomous variable and cyclic AMP cumulative dosage as an induced variable
# [4] = Solubility; type: physicochemical
# [5] = Disposition
# [6] = Toxicity
# [7] = Stability of the crystal for humidity and light; type: physicochemical
smiles,measurement,setting,value
C1=Cc2cccc(OC[C@H]3CNCCO3)c2C1.O=S(=O)(O)c1ccccc1 [benzenesulfonate],thermal stability,[1],superior in thermal stability
"CC1(C)C2CCC1(CS(=O)(=O)O)C(=O)C2.CCC(CC)Nc1c2c(nc3c(-c4ccc(OC)cc4Cl)c(C)nn13)CCC2 [camphorsulfonate (D, L, or DL)]",thermal stability,[1],superior in thermal stability
"CCC(CC)Nc1c2c(nc3c(-c4ccc(OC)cc4Cl)c(C)nn13)CCC2 [compound (1), 8-(3-pentylamino)-2-methyl-3-(2-chloro-4-methoxyphenyl)-6,7-dihydro-5H-cyclopenta[d]pyrazolo[1,5-a]pyrimidine methanesulfonate]",IC50,[2],< 1000 nM
same,IC50,[3],< 1000 nM
same,thermal stability,"[1]; listed as the methanesulfonate compound, methanesulfonate",superior thermal stability
same,thermal stability,[1]; methanesulfonate,steady; also recorded: superior in thermal stability
same,solubility,[4],remarkably superior
same,disposition,[5],remarkably superior
same,toxicity,[6],very low
same,stability for humidity,[7],steady
same,stability for light,[7],steady
"CCC(CC)Nc1c2c(nc3c(-c4ccc(OC)cc4Cl)c(C)nn13)CCC2.Cl [the hydrochloride compound, 8-(3-pentylamino)-2-methyl-3-(2-chloro-4-methoxyphenyl)-6,7-dihydro-5H-cyclopenta[d]pyrazolo[1,5-a]pyrimidine hydrochloride, reference compound]",thermal stability,[1]; hydrochloride,unstable compound to heat
same,thermal stability,"[1]; listed as 8-(3-pentylamino)-2-methyl-3-(2-chloro-4-methoxyphenyl)-6,7-dihydro-5H-cyclopent, hydrochloride",poor
same,temperature at which the DSC curve changed significantly,"[1]; DSC chart FIG. 2, then changed gradually after over 50° C.",~40 °C
"CCC(CC)Nc1c2c(nc3c(-c4ccc(OC)cc4Cl)c(C)nn13)CCC2.Cc1ccc(S(=O)(=O)O)cc1 [tosylate, 8-(3-pentylamino)-2-methyl-3-(2-chloro-4-methoxyphenyl)-6,7-dihydro-5H-cyclopenta[d]pyrazolo[1,5-a]pyrimidine tosylate]",thermal stability,[1],superior in thermal stability
